What was measured:
[1] = Inhibition of Influenza A virus A/Duck/313/4/78(H5N3) sialidase at 3.33 x 10^-4M preincubated for 15 mins followed by MUNA substrate addition measured after 15 mins by fluorescence assay relative to control
[2] = target: Neuraminidase (Influenza A virus (A/Puerto Rico/8/1934(H1N1))) (UniProt P03468); test: Inhibition of Influenza A virus A/PR/8/34(H1N1) sialidase at 3.33 x 10^-4M preincubated for 15 mins followed by MUNA substrate addition measured after 15 mins by fluorescence assay relative to control
[3] = target: Neuraminidase (Influenza A virus (A/Memphis/1/1971(H3N2))) (UniProt P03471); test: Inhibition of Influenza A virus A/Memphis/1/71(H3N2) sialidase at 3.33 x 10^-4M preincubated for 15 mins followed by MUNA substrate addition measured after 15 mins by fluorescence assay relative to control
Influenza A virus [4] = test: Antiviral activity against Influenza A virus A/PR/8/34(H1N1) infected in MDCK cells assessed as viral yield at 1 x 10^-5 M preincubated with virus for 1 hr followed by viral infection measured after 18 hrs by beta-galactosidase based fluorescence assay (reference value: 100%); format: functional, A/Puerto Rico/8/1934(H1N1)
MDCK = test: Cytotoxicity against MDCK cells assessed as reduction in cell viability at 1 x 10^-5 M after 24 hrs by CCK8 assay; format: cell-based, Canis lupus familiaris; conditions: dog, 10 µM
Influenza A virus [5] = test: Antiviral activity against Influenza A virus A/PR/8/34(H1N1) infected in MDCK cells assessed as reduction in viral yield at 1 x 10^-5 M preincubated with virus for 1 hr followed by viral infection measured after 18 hrs by beta-galactosidase based fluorescence assay; format: functional, organism-based; conditions: A/Puerto Rico/8/1934(H1N1)

Neuraminidase (Influenza A virus (A/Memphis/1/1971(H3N2))), sequence (P03471 whole entry): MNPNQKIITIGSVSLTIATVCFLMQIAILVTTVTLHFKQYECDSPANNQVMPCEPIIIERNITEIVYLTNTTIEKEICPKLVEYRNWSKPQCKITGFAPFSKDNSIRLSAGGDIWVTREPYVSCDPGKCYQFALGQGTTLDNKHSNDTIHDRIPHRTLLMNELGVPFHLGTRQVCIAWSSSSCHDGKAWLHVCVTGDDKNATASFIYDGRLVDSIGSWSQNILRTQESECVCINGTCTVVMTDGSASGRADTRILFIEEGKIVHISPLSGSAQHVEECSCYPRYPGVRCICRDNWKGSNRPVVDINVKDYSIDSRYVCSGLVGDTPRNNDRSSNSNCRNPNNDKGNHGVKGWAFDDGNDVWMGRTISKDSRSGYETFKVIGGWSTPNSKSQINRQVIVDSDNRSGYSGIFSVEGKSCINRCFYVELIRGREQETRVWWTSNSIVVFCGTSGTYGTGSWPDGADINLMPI
Neuraminidase (Influenza A virus (A/Puerto Rico/8/1934(H1N1))), sequence (P03468 whole entry): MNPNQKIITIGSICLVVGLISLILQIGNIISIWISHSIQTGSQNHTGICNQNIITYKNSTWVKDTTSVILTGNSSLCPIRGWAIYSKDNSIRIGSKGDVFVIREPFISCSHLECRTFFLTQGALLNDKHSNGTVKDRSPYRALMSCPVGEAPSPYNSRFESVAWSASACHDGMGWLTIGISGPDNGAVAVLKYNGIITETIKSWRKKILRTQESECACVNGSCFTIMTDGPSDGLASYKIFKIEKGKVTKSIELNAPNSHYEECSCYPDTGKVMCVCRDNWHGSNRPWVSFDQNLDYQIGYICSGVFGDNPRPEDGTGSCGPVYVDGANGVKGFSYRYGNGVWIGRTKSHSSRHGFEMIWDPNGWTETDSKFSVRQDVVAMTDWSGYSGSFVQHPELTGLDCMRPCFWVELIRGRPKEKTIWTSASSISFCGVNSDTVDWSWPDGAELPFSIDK

| Structure (SMILES) | inhibition [1] [%] | inhibition [2] [%] | inhibition [3] [%] | Activity (Influenza A virus [4]) [%] | Activity (MDCK) | Activity (Influenza A virus [5]) |
| --- | --- | --- | --- | --- | --- | --- |
| COC(=O)[C@@]1(C)CC[C@]2(C)CC[C@]3(C)C(=CC(=O)[C@@H]4[C@@]5(C)CC[C@H](O[C@]6(C(=O)O)C[C@H](O)[C@@H](NC(C)=O)[C@H]([C@H](O)[C@H](O)CO)O6)C(C)(C)[C@@H]5CC[C@]43C)[C@@H]2C1 | 27.5 | 52.2 | 39.9 |  |  |  |
| CC(=O)N[C@H]1[C@H]([C@H](O)[C@H](O)CO)O[C@](O[C@H]2CC[C@]3(C)[C@H]4C(=O)C=C5[C@@H]6C[C@@](C)(C(=O)O)CC[C@]6(C)CC[C@@]5(C)[C@]4(C)CC[C@H]3C2(C)C)(C(=O)O)C[C@@H]1O | 25.8 | 21.1 | 23.4 |  |  |  |
| CC(=O)N[C@H]1[C@H]([C@H](O)[C@H](O)CO)O[C@@](O[C@H]2CC[C@]3(C)[C@H]4C(=O)C=C5[C@@H]6C[C@@](C)(C(=O)O)CC[C@]6(C)CC[C@@]5(C)[C@]4(C)CC[C@H]3C2(C)C)(C(=O)O)C[C@@H]1O | 16.4 | 50.1 | 27.4 |  |  |  |
| CC(=O)N[C@H]1[C@H]([C@H](O)[C@H](O)CO)O[C@@](O[C@H]2CC[C@]3(C)[C@H]4C(=O)C=C5[C@@H]6C[C@@](C)(CO)CC[C@]6(C)CC[C@@]5(C)[C@]4(C)CC[C@H]3C2(C)C)(C(=O)O)C[C@@H]1O | 25.3 | 50.3 | 30.3 |  |  |  |
| COC(=O)[C@]12CCC(C)(C)C[C@H]1C1=CC[C@@H]3[C@@]4(C)CC[C@H](O[C@@]5(C(=O)O)C[C@H](O)[C@@H](NC(C)=O)[C@H]([C@H](O)[C@H](O)CO)O5)C(C)(C)[C@@H]4CC[C@@]3(C)[C@]1(C)CC2 | 70.7 | 89.9 | 64.9 | 46.7 | Non-Toxic | Dose-dependent effect |
| CC(=O)N[C@H]1[C@H]([C@H](O)[C@H](O)CO)O[C@](O[C@H]2CC[C@]3(C)[C@H]4C(=O)C=C5[C@@H]6C[C@@](C)(CO)CC[C@]6(C)CC[C@@]5(C)[C@]4(C)CC[C@H]3C2(C)C)(C(=O)O)C[C@@H]1O | 43.8 | 35.8 | 40.3 |  |  |  |
| CC(=O)N[C@H]1[C@H]([C@H](O)[C@H](O)CO)O[C@@](O[C@H]2CC[C@]3(C)[C@H]4CC=C5[C@@H]6C[C@@](C)(CO)CC[C@]6(C)CC[C@@]5(C)[C@]4(C)CC[C@H]3C2(C)C)(C(=O)O)C[C@@H]1O | 57.6 | 71 | 45 | 88 | Non-Toxic |  |
| COC(=O)[C@]12CCC(C)(C)C[C@H]1C1=CC[C@@H]3[C@@]4(C)CC[C@H](O[C@]5(C(=O)O)C[C@H](O)[C@@H](NC(C)=O)[C@H]([C@H](O)[C@H](O)CO)O5)C(C)(C)[C@@H]4CC[C@@]3(C)[C@]1(C)CC2 | 65.7 | 74.9 | 70.7 | 39.4 | Non-Toxic |  |
| CC(=O)N[C@H]1[C@H]([C@H](O)[C@H](O)CO)O[C@](O[C@H]2CC[C@]3(C)[C@H]4CC=C5[C@@H]6C[C@@](C)(CO)CC[C@]6(C)CC[C@@]5(C)[C@]4(C)CC[C@H]3C2(C)C)(C(=O)O)C[C@@H]1O | 55.7 | 76.7 | 68.7 | 72.6 | Non-Toxic | Dose-dependent effect |
| COC(=O)[C@@]1(C)CC[C@]2(C)CC[C@]3(C)C(=CC(=O)[C@@H]4[C@@]5(C)CC[C@H](O[C@@]6(C(=O)O)C[C@H](O)[C@@H](NC(C)=O)[C@H]([C@H](O)[C@H](O)CO)O6)C(C)(C)[C@@H]5CC[C@]43C)[C@@H]2C1 | 46.2 | 35.4 | 44.8 |  |  |  |
| CC(=O)N[C@H]1[C@H]([C@H](O)[C@H](O)CO)O[C@](O[C@H]2CC[C@]3(C)[C@H]4CC=C5[C@@H]6CC(C)(C)CC[C@]6(C(=O)O)CC[C@@]5(C)[C@]4(C)CC[C@H]3C2(C)C)(C(=O)O)C[C@@H]1O | 34.6 | 33.2 | 26.5 |  |  |  |

Reference: ChEMBL document CHEMBL4177726, “Synthesis and anti-influenza virus evaluation of triterpene-sialic acid conjugates” (Bioorg Med Chem, 2018)
